Patent US8354522B2, “Immunostimulatory oligoribonucleotides” (Coley Pharmaceutical GmbH, priority 2005, dated 2013)
Where two headings read alike, the source gives them in different places.

Tested on: Human PBMC
Assay: Cytokine production upon human PBMC stimulation (ORN complexed to DOTAP, 16 h, ELISA)
Type: cell-based
Parameters: key to IFN-alpha / TNF-alpha: +: cytokine production; −: no cytokine production
Conditions: for EC50 / IFN-alpha max activity / TNF-alpha max activity: ORN complexed to DOTAP, 16 h; for EC50: full titration 2 μM to 0.9 nM; for IFN-alpha max activity / TNF-alpha max activity: mean max activity at 0.6 μM, 3-6 blood donors; for IFN-alpha / TNF-alpha: human PBMC stimulated for 16 h, supernatant ELISA
Protocol: Human peripheral blood mononuclear cells (PBMCs) were isolated from healthy donors, plated, and stimulated in vitro with various test and control immunostimulatory agents for 16 hours. After 16 hours, the supernatants were collected and then analyzed by ELISA assay. N-U-R1-R2,-Containing Oligoribonucleotides were tested complexed to DOTAP and with full titration curves (7 concentrations), starting from 2 μM ORN complexed to 25 μg/ml DOTAP and with 1/3 dilution steps. Also included were certain negative controls, including medium alone and DOTAP (25 μg/ml culture well; “Liposomes”) alone. The control immunostimulatory agents included the imidazoquinoline R-848 (2 μM with 1/3 dilution steps and 7 concentrations) the reported ligand for TLR7, ORN having TLR8 motifs such as AU and AUU sequences (SEQ ID NO:13-SEQ ID NO:15) ORN having TLR7/8 motifs such as CU, GU and GUU sequences (SEQ ID NO:19-SEQ ID NO:23).
Human PBMC were stimulated with ORN complexed to DOTAP. After 16 hours supernatants were harvested and TNF-alpha and IFN-alpha levels were measured. Mean/Max activities at 0.6 μM of 3-6 blood donors and two individual experiments were determined. […] TLR8 and TLR7/8 ORN are divided by a red line.
Human PBMC were stimulated with ORN complexed to DOTAP. After 16 hours supernatants were harvested and IFN-alpha levels were measured. Mean/Max activities at 0.6 μM and EC50 of full titration curves (range: 2 μM to 0.9 nM) of 3-6 blood donors and two individual experiments were determined. […] Low EC50/high Max activity represents TLR7/8 ORN (FIG. 5a) whereas high EC50 and low Max activity represents TLR8 ORN (FIG. 5b).
The ORN sequences listed in Table 1 were tested for IFN-alpha and TNF-alpha production upon human PBMC stimulation. Human PBMC were stimulated for 16 h with the indicated ORN, and supernatants were harvested and cytokine production measured by ELISA. Table 2 summarizes the min/max activity and EC50 of ORN for IFN-alpha and TNF-alpha production.

[1] = human PBMC, read-out: IFN-alpha EC50
[2] = human PBMC, read-out: TNF-alpha EC50

Row | Substance | EC50 [1] [nM] | EC50 [2] [nM] | IFN-alpha max activity (human PBMC) [pg/mL] | TNF-alpha max activity (human PBMC) [pg/mL] | IFN-alpha production upon PBMC stimulation (in words) (human PBMC) | IFN-alpha | TNF-alpha
1 | C*C*G*A*G*C*C*G*A*T*U*G*U*A*C*C (CCGAGCCGANUGUACC; Oligoribonucleotide, chemistry of T and the '*' linkage is not given here, further chemistry not given here) [SEQ ID NO: 62] | 276 | 343 | 1945 | 37334 |  |  | 
2 | C*C*G*A*G*C*C*G*A*U*U*U*T*A*C*C (CCGAGCCGAUUUNACC; Oligoribonucleotide, chemistry of T and the '*' linkage is not given here, further chemistry not given here) [SEQ ID NO: 72] | 75 | 146 | 1896 | 38811 |  |  | 
3 | C*C*G*A*G*C*C*G*A*G*U*U*C*A*C*C [SEQ ID NO: 67] (CCGAGCCGAGUUCACC; listed as RNA, chemistry not fully specified) | 81 | 79 | 2094 | 40729 |  |  | 
4 | U*U*U*U*A*U*U*U*U*A*U*U*U*U*A*U*U*U*U*A (UUUUAUUUUAUUUUAUUUUA; chemistry not fully specified) [SEQ ID NO: 15] |  |  |  |  | induced IFN-alpha production | + | +
5 | C*C*G*A*G*C*C*G*C*A*A*U*U*C*C*C [SEQ ID NO: 50] (CCGAGCCGCAAUUCCC; listed as RNA, chemistry not fully specified) | 562 | 564 | 2614 | 11141 |  |  | 
6 | dN*dN*dN*dN*dN*N*A*U*A*U*N*N*dN*dN*dN*dN*dN*dN [SEQ ID NO: 7] |  |  |  |  |  | − | +
7 | C*C*G*A*G*C*C*G*A*A*G*G*U*G*C*C (CCGAGCCGAAGGUGCC; listed as RNA, chemistry not fully specified) [SEQ ID NO: 83] | > 2000 | 215 | 96.22 | 12207 |  |  | 
8 | C*C*G*A*G*C*C*G*A*C*U*U*U*A*C*C (CCGAGCCGACUUUACC; listed as RNA, chemistry not fully specified) [SEQ ID NO: 57] | 77 | 213 | 1499 | 33624 |  |  | 
9 | U*A*U*A*U*A*U (UAUAUAU; phosphorothioate linkages, chemistry not fully specified) [SEQ ID NO: 33] |  |  |  |  |  | − | +
10 | G*C*C*A*C*C*G*A*G*C*C*G*A*A*U*A*U*A*C*C (GCCACCGAGCCGAAUAUACC; listed as RNA, chemistry not fully specified) [SEQ ID NO: 11] |  |  |  |  |  | − | +
11 | C*U*C*U*C*U*C*U*C*U*C*U*C*U*C*U*C*U*C*U (CUCUCUCUCUCUCUCUCUCU; listed as RNA, chemistry not fully specified) [SEQ ID NO: 19] |  |  |  |  |  | + | +
12 | C*C*G*A*G*C*C*G*A*T*U*U*C*A*C*C [SEQ ID NO: 68] (CCGAGCCGANUUCACC; Oligoribonucleotide, chemistry of T and the '*' linkage is not given here, further chemistry not given here) | 18 | 217 | 1821 | 29647 |  |  | 
13 | C*C*G*A*G*C*C*G*C*A*A*U*U*C*C*C [SEQ ID NO: 52] (CCGAGCCGCAAUUCCC; listed as RNA, chemistry not fully specified) | 508 | 895 | 2263 | 11920 |  |  | 
14 | G*U*A*G*G*C*A*C (GUAGGCAC; phosphorothioate linkages, chemistry not fully specified) [SEQ ID NO: 1] |  |  |  |  |  | − | +
15 | C*C*G*A*G*C*C*G*A*G*U*U*C*A*C*C [SEQ ID NO: 77] (CCGAGCCGAGUUCACC; listed as RNA, chemistry not fully specified) | 151 | 257 | 2519 | 21820 |  |  | 
16 | C*C*G*A*G*C*C*A*U*A*U*A*U*C*C*C (CCGAGCCAUAUAUCCC; listed as RNA, chemistry not fully specified) [SEQ ID NO: 38] | ≥ 1500 | 890 | 245 | 14064 |  |  | 
17 | C*C*G*A*G*C*C*G*C*U*U*A*C*C*C*C (CCGAGCCGCUUACCCC; listed as RNA, chemistry not fully specified) [SEQ ID NO: 53] | 244 | 952 | 3091 | 14623 |  |  | 
18 | C*C*G*A*G*C*C*G*C*A*U*U*C*C*C*C (CCGAGCCGCAUUCCCC; listed as RNA, chemistry not fully specified) [SEQ ID NO: 54] | 780 | 339 | 1233 | 12595 |  |  | 
19 | C*C*G*A*G*C*C*G*A*U*U*U*C*A*C*C (CCGAGCCGAUUUCACC; listed as RNA, chemistry not fully specified) [SEQ ID NO: 71] | 51 | 160 | 1626 | 45164 |  |  | 
20 | C*C*G*A*G*C*C*G*A*A*G*G*U*C*C*C (CCGAGCCGAAGGUCCC; listed as RNA, chemistry not fully specified) [SEQ ID NO: 86] | 767 | 850 | 856.5 | 4178 |  |  | 
21 | C*C*G*A*G*C*C*G*C*A*U*A*U*C*C*C (CCGAGCCGCAUAUCCC; listed as RNA, chemistry not fully specified) [SEQ ID NO: 36] | ≥ 1500 | 850 | 110.4 | 18063 |  |  | 
22 | C*C*G*A*G*C*C*G*C*A*U*C*C*C*C*C (CCGAGCCGCAUCCCCC; listed as RNA, chemistry not fully specified) [SEQ ID NO: 46] | > 2000 | 765 | 74.76 | 7096 |  |  | 
23 | C*C*G*A*G*C*C*G*A*A*G*G*C*A*C*C (CCGAGCCGAAGGCACC; listed as RNA, chemistry not fully specified) [SEQ ID NO: 56] | > 2000 |  | 59.84 | 4430 |  |  | 
24 | C*C*G*A*G*C*C*G*A*U*U*G*C*A*C*C (CCGAGCCGAUUGCACC; listed as RNA, chemistry not fully specified) [SEQ ID NO: 74] | 419 | 329 | 609.1 | 30958 |  |  | 
25 | C*C*G*A*G*C*C*G*C*C*U*A*C*C*C*C (CCGAGCCGCCUACCCC; listed as RNA, chemistry not fully specified) [SEQ ID NO: 47] | ≥ 1500 | 566 | 271.9 | 14265 |  |  | 
26 | I*U*A*I*U*A*I*U*A*I*U*A*I*U*A*I*U*A*I*U (NUANUANUANUANUANUANU; inosine, phosphorothioate linkages, chemistry not fully specified) [SEQ ID NO: 27] |  |  |  |  |  | + | +
27 | C*C*G*A*G*C*C*G*A*U*A*U*U*A*C*C (CCGAGCCGAUAUUACC; listed as RNA, chemistry not fully specified) [SEQ ID NO: 65] | 1130 | 77 | 335.2 | 39377 |  |  | 
28 | C*C*G*A*G*C*C*G*A*A*G*C*U*C*C*C (CCGAGCCGAAGCUCCC; listed as RNA, chemistry not fully specified) [SEQ ID NO: 84] | > 2000 | 377 | 67.76 | 8545 |  |  | 
29 | A*U*A*G*G*C*A*C (AUAGGCAC; phosphorothioate linkages, chemistry not fully specified) [SEQ ID NO: 4] |  |  |  |  |  | − | +
